Measurements: patent publication US20230027361A1, “METTL3 MODULATORS” (priority 2019, published 2023)
Read-outs that look alike come from different tables or passages of the source.

What was measured:
METTL3/METTL14 = METTL3/METTL14 (Homo sapiens, UniProt Q86U44); experiment: METTL3-14 Standard Enzyme Assay (METTL3 biochemical assay)
Description: Assays were performed in a 25 μl-volume in 384-well V-bottom polypropylene microplates (Greiner Bio-One, cat. No. 781280) at ambient temperature. Optimized 1× assay buffer was 20 mM HEPES pH 7.5, 50 mM KCl, 250 μM MgCl2, 1 mM DTT, 0.01% Tween, 0.01% BSG, 0.004 U/μl RNAseOUT (cat. No. 10777019, ThermoFisher Scientific, Waltham, Mass.). For compound screening METTL3/METTL14 (final concentration, f.c.=2.5 nM) was added using a Multidrop Combi (ThermoFisher Scientific, Waltham, Mass.) and preincubated for 5 min. Reactions were started by adding 3′ biotinylated RNA ([…]-biotin) (f.c.=100 nM) and 3H-SAM (f.c.=100 nM) substrates. Reactions proceeded for 30 minutes and were quenched with excess non-radioactive SAM (f.c.=15 μM). The reactions were then transferred to streptavidin-coated flashplates and incubated for 2 hours at 25° C. Following two washing cycles with 0.1% Tween-20, the plates were sealed and read on a TopCount (PerkinElmer, Waltham, Mass.) plate-based scintillation counter. For determination of kinetic parameters, reaction times were optimized so that measurements were taken during the initial velocity phase of the reaction.

METTL1/WDR4 = METTL1/WDR4 (Homo sapiens, UniProt Q9UBP6); experiment: METTL1 Assay (METTL1 biochemical assay)
Chain of METTL1/WDR4 (Q9UBP6 whole entry, species assumed): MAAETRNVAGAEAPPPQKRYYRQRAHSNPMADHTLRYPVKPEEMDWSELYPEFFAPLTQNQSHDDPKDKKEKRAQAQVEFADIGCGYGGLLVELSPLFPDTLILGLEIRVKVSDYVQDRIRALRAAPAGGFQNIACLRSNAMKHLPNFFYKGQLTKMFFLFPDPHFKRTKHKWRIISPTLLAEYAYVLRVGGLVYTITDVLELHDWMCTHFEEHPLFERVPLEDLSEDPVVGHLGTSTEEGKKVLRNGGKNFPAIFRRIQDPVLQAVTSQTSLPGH
Chain of METTL1/WDR4 (P57081 whole entry partner, species assumed): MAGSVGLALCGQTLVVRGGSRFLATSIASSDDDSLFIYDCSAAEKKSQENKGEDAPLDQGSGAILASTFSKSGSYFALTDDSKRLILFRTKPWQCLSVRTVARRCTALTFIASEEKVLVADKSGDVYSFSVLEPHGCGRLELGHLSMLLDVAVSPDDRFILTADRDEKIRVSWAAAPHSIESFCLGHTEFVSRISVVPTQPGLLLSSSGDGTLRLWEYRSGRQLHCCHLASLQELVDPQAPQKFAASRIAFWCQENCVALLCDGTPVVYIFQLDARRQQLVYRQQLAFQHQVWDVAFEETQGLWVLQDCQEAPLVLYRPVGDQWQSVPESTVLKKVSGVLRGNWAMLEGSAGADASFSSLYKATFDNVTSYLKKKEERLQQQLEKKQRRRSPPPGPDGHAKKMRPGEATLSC
Description: Assays were performed in a 25 μl-volume in 384-well V-bottom polypropylene microplates (Greiner Bio-One, cat. No. 781280) at ambient temperature. Optimized 1× assay buffer was 20 mM HEPES pH 7.5, 50 mM KCl, 250 μM MgCl2, 1 mM DTT, 0.01% Tween, 0.01% BSG, 0.004 U/μl RNAseOUT (cat. No. 10777019, ThermoFisher Scientific, Waltham, Mass.). For compound screening METTL1/WDR4 (final concentration, f.c.=6.25 nM) was added using a Multidrop Combi (ThermoFisher Scientific, Waltham, Mass.) and preincubated for 5 min. Reactions were started by adding 3′ biotinylated RNA ([…]-biotin) (f.c.=25 nM) and 3H-SAM (f.c.=60 nM) substrates. Reactions proceeded for 20 minutes and were quenched with excess non-radioactive SAM (f.c.=15 μM). The reactions were then transferred to streptavidin-coated flashplates and incubated for 2 hours at 25° C. Following two washing cycles with 0.1% Tween-20, the plates were sealed and read on a TopCount (PerkinElmer, Waltham, Mass.) plate-based scintillation counter. For determination of kinetic parameters, reaction times were optimized so that measurements were taken during the initial velocity phase of the reaction.

PRMT5-MEP50 = PRMT5-MEP50 (Homo sapiens, UniProt O14744); experiment: PRMT5 Assay (PRMT5 biochemical assay)
Chain of PRMT5-MEP50 (O14744 whole entry): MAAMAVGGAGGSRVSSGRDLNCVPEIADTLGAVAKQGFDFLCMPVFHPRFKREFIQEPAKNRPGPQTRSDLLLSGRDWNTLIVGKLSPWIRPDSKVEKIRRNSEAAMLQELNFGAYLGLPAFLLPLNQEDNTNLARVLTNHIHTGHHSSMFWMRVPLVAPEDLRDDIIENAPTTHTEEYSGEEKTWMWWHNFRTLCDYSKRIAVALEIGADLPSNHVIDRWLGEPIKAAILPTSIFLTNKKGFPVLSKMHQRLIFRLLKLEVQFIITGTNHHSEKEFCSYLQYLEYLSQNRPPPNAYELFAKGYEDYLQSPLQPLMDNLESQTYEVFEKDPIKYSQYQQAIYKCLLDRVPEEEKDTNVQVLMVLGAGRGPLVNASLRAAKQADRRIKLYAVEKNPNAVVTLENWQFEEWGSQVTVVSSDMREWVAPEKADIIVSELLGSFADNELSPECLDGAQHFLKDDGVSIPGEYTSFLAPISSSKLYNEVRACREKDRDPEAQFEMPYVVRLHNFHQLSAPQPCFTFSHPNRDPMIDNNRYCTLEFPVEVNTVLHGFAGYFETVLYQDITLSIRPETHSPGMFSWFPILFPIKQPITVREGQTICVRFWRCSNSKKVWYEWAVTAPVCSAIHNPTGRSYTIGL
Chain of PRMT5-MEP50 (Q9BQA1 whole entry partner): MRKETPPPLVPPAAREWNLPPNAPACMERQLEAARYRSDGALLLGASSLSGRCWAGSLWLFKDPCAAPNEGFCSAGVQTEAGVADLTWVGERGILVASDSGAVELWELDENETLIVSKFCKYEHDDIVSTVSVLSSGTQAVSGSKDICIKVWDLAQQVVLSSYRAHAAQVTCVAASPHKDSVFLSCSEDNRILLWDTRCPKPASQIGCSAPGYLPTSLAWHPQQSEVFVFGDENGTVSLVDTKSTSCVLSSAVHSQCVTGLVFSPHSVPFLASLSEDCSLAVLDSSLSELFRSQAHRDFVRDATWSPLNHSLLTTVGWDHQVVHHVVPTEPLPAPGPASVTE
Description: Assays were performed in a 25 μl-volume in 384-well V-bottom polypropylene microplates (Greiner Bio-One, cat. No. 781280) at ambient temperature. Optimized 1× assay buffer was 20 mM Tris-HCl pH 8.0, 1 mM DTT, […]. For compound screening PRMT5-MEP50 (final concentration, f.c.=2.5 nM) was added using a Multidrop Combi (ThermoFisher Scientific, Waltham, Mass.) and preincubated for 5 min. Reactions were started by adding 3′ biotinylated histone H4 peptide acetylated on serine 1 (Ac-[…]-Biotin) (f.c.=100 nM) and 3H-SAM (f.c.=250 nM) substrates. Reactions proceeded for 60 minutes and were quenched with excess non-radioactive SAM (f.c.=15 μM). The reactions were then transferred to streptavidin-coated flashplates and incubated for 2 hours at 25° C. Following two washing cycles with 0.1% Tween-20, the plates were sealed and read on a TopCount (PerkinElmer, Waltham, Mass.) plate-based scintillation counter. For determination of kinetic parameters, reaction times were optimized so that measurements were taken during the initial velocity phase of the reaction.

[1] = METTL3 biochemical assay, read-out: METTL3 IC50
[2] = read-out: METTL1 IC50; METTL1 biochemical assay
[3] = PRMT5 biochemical assay, read-out: PRMT5 IC50
[4] = METTL1 biochemical assay; read-out: METTL1 IC50

Chain of METTL3/METTL14 (Q86U44 whole entry, species assumed): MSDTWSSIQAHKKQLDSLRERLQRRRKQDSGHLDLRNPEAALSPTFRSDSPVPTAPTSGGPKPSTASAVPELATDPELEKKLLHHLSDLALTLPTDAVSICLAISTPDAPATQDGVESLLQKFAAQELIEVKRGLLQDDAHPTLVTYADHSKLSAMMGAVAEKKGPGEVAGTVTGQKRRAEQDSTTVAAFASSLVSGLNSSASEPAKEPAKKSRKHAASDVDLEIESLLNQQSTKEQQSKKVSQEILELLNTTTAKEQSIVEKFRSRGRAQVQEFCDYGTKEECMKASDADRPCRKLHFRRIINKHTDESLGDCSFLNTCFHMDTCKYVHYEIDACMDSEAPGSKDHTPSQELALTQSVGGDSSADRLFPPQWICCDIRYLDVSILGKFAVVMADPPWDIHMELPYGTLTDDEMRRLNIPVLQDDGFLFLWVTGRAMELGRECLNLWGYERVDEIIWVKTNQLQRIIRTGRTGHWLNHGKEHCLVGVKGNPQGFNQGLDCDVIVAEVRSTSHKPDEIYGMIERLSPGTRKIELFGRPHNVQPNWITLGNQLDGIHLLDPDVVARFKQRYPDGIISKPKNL
Chain of METTL3/METTL14 (Q9HCE5 whole entry partner, species assumed): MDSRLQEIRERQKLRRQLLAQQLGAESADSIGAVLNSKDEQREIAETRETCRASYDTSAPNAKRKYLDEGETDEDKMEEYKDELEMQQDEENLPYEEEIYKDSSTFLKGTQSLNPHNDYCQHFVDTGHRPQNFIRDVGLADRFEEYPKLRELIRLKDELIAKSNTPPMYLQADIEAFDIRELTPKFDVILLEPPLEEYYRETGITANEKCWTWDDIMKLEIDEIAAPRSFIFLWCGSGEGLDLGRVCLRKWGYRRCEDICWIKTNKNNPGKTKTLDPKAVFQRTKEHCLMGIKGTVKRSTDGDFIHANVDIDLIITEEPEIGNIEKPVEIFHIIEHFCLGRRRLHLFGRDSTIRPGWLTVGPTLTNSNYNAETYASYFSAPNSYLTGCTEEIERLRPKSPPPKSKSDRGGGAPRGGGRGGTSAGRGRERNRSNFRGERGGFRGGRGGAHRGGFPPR

Compound	IC50 (METTL3/METTL14; [1])	IC50 (METTL1/WDR4; [2])	IC50 (PRMT5-MEP50; [3])	IC50 (METTL3/METTL14)	IC50 (METTL1/WDR4; [4])	IC50 (PRMT5-MEP50)	IC50 (METTL3/METTL14; read-out: METTL3 IC50, METTL3 biochemical assay)	IC50 (PRMT5-MEP50; read-out: PRMT5 IC50, PRMT5 biochemical assay)
Nc1ncnc2c1ccn2[C@@H]1C[C@H](CCc2ccc3cn[nH]c3c2)[C@@H](O)[C@H]1O [I-103]	> 1 µM	> 1 µM	0.01 to 0.1 µM					
CNc1ccc2ccc(CC[C@H]3C[C@@H](n4cc(C5CCOCC5)c5c(N)ncnc54)[C@H](O)[C@@H]3O)cc2n1 [I-58]	0.01 to 0.1 µM	> 1 µM	< 0.01 µM					
Nc1ccc2ccc(NC[C@H]3C[C@@H](n4ccc5c(N)ncnc54)[C@H](O)[C@@H]3O)cc2n1 [I-109]	> 1 µM	> 1 µM	0.01 to 0.1 µM					
CNc1ccc2ccc(OC[C@H]3O[C@@H](n4cnc5c(N)ncnc54)[C@H](O)[C@@H]3O)cc2n1 [I-76]	0.01 to 0.1 µM	> 1 µM	< 0.01 µM					
O[C@@H]1[C@@H](CCc2ccc3[nH]ncc3c2)C[C@@H](n2ccc3c(NCCc4ccccc4)ncnc32)[C@@H]1O [I-89]	> 1 µM	> 1 µM	0.1 to 1 µM					
CNc1ccc2ccc(OC[C@H]3O[C@@H](n4cc(-c5cn(C(C)C)cn5)c5c(N)ncnc54)[C@@H](F)[C@@H]3O)cc2n1 [I-233]				0.01 to 0.1 µM	> 1 µM	> 1 µM		
Nc1ccc2ccc(CC[C@H]3C[C@@H](n4ccc5c(N)ncnc54)[C@H](O)[C@@H]3O)cc2c1 [I-108]	> 1 µM	> 1 µM	0.1 to 1 µM					
Nc1ncnc2c1ccn2[C@@H]1C[C@H](CCc2ccc3c(OCc4ccccc4)ccnc3c2)[C@@H](O)[C@H]1O [I-86]	> 1 µM	> 1 µM	< 0.01 µM					
CNc1ccc2ccc(OC[C@H]3O[C@@H](n4cc(Br)c5c(N)ncnc54)C[C@@H]3O)cc2n1 [I-47]	< 0.01 µM	> 1 µM	0.1 to 1 µM					
Nc1ccc2ccc(OC[C@H]3O[C@@H](n4ccc5c(N)ncnc54)[C@H](O)[C@@H]3O)cc2n1 [I-80]	0.01 to 0.1 µM	> 1 µM	< 0.01 µM					
Nc1ccc2ccc(CC[C@H]3C[C@@H](n4cc(Br)c5c(N)ncnc54)[C@H](O)[C@@H]3O)cc2n1 [I-107]	0.01 to 0.1 µM	> 1 µM	< 0.01 µM					
Cn1cc(-c2cn([C@@H]3C[C@H](CCc4ccc5ccc(N)nc5c4)[C@@H](O)[C@H]3O)c3ncnc(N)c23)cn1 [I-63]					> 1 µM		0.1 to 1 µM	< 0.01 µM
Cc1cn([C@@H]2O[C@H](COc3ccc4ccc(NCC5CC5)nc4c3)[C@@H](O)[C@H]2O)c2ncnc(N)c12 [I-20]	> 1 µM	> 1 µM	0.1 to 1 µM					
COc1cccc(CC[C@H]2C[C@@H](n3ccc4c(N)ncnc43)[C@H](O)[C@@H]2O)n1 [I-114]	> 1 µM	> 1 µM	> 1 µM					
Nc1ncnc2c1ccn2[C@@H]1C[C@H](CCc2ccc3cc(C#Cc4ccccc4)cnc3c2)[C@@H](O)[C@H]1O [I-112]	> 1 µM	> 1 µM	0.01 to 0.1 µM					
